*1 amine or outer side, *2 acyl side, *3 side chain or, on linkers, in order; H or OH if unused. Where a SMILES comes first, the peptide text is derived from it. Side-chain parts run from the residue outwards. [ ]: non-standard residue; d: D form. The star is where a group is joined. C20 diacid = O=C(O)CCCCCCCCCCCCCCCCCCC(=O)*; γGlu = O=C(O)[C@H](CCC(=O)[*:2])N[*:1]; 4Pal = N[C@@H](Cc1ccncc1)C(=O)O; αMeL = CC(C)C[C@](C)(N)C(=O)O; Orn = NCCC[C@H](N)C(=O)O; AEEA = NCCOCCOCC(=O)O; Aib = CC(C)(N)C(=O)O
Columns and labels:
Test in all cases: cAMP functional assay (HTRF) in HEK293 cells in presence of 0.1% casein
Type in all cases: cell-based
[1] = molecular target: T1, human GLP-1 receptor (GLP-1R) (Homo sapiens, UniProt P43220); conditions: HEK293 cells expressing human GLP-1R, geometric mean, read-out: hGLP1R cAMP Rel EC50 nM (SEM, n)
T1 construct: expressed in transfected cells; host or cells: HEK293

[2] = molecular target: T2, human glucose-dependent insulinotropic peptide receptor (GIPR) (Homo sapiens, UniProt P48546); conditions: HEK293 cells expressing human GIPR, geometric mean, read-out: hGIPR cAMP Rel EC50 nM (SEM, n)
T2 construct: expressed in transfected cells; host or cells: HEK293
T2 sequence (P48546 22-466): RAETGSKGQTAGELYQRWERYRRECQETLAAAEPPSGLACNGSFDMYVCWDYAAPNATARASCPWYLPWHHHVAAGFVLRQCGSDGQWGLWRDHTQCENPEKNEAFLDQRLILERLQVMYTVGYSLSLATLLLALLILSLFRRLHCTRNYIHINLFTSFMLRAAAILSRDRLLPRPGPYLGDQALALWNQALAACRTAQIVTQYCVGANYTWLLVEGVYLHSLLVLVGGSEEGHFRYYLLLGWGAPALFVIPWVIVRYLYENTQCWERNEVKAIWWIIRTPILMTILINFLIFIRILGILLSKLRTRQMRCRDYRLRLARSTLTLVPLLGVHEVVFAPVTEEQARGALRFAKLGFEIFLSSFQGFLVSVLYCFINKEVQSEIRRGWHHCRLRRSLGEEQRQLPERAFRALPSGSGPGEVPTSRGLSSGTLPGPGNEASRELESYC

[3] = molecular target: T3, human glucagon receptor (GcgR) (Homo sapiens, UniProt P47871); conditions: HEK293 cells expressing human GcgR, geometric mean, read-out: hGcgR cAMP Rel EC50 nM (SEM, n)
T3 construct: expressed in transfected cells; host or cells: HEK293
T3 sequence (P47871 26-477): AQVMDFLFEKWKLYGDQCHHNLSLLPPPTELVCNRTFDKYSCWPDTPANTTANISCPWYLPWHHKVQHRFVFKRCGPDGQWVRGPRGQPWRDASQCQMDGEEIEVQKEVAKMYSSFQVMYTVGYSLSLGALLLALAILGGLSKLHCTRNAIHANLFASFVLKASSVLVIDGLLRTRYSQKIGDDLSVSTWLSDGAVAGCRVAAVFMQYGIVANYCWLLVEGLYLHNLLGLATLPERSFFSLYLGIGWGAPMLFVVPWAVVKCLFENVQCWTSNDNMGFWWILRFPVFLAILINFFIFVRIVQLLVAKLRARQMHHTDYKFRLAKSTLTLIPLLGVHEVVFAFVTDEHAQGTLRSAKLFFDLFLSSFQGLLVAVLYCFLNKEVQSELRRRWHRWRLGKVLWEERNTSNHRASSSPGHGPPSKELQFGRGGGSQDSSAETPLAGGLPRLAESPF

T1 sequence (P43220 24-463): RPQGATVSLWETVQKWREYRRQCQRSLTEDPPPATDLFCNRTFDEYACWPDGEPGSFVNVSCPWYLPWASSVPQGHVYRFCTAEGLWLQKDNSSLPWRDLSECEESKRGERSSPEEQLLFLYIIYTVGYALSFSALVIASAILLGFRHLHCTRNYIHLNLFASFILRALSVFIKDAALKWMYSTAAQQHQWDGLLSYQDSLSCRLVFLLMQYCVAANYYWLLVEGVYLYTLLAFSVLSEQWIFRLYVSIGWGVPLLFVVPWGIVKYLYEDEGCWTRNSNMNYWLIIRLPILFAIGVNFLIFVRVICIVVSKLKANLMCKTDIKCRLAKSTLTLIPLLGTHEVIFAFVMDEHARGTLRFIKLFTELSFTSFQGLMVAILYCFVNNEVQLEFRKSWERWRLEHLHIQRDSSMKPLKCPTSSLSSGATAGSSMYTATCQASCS

SMILES | EC50 [1] | EC50 [2] | EC50 [3]
CC[C@H](C)[C@H](NC(=O)[C@H](Cc1ccccc1)NC(=O)[C@@H](NC(=O)CNC(=O)[C@H](CCC(=O)O)NC(=O)C(C)(C)NC(=O)[C@@H](N)Cc1ccc(O)cc1)[C@@H](C)O)C(=O)N[C@@H](CO)C(=O)N[C@@H](CC(=O)O)C(=O)N[C@@H](Cc1ccc(O)cc1)C(=O)N[C@@H](CO)C(=O)N[C@H](C(=O)N[C@@](C)(CC(C)C)C(=O)N[C@@H](CC(C)C)C(=O)N[C@@H](CC(=O)O)C(=O)N[C@@H](CCC(=O)O)C(=O)N[C@@H](CCCCNC(=O)COCCOCCNC(=O)COCCOCCNC(=O)CC[C@H](NC(=O)CCCCCCCCCCCCCCCCCCC(=O)O)C(=O)O)C(=O)N[C@@H](Cc1c[nH]cn1)C(=O)N[C@@H](CCC(N)=O)C(=O)NC(C)(C)C(=O)N[C@@H](CC(=O)O)C(=O)N[C@@H](Cc1ccccc1)C(=O)N[C@H](C(=O)N[C@@H](CCC(=O)O)C(=O)N[C@@H](Cc1ccncc1)C(=O)N[C@@H](CC(C)C)C(=O)N[C@@H](CC(C)C)C(=O)N[C@@H](C)C(=O)N[C@@H](CCC(N)=O)C(=O)NCC(=O)N1CCC[C@H]1C(=O)N[C@@H](CO)C(=O)N[C@@H](CO)C(=O)NCC(=O)N[C@@H](C)C(=O)N1CCC[C@H]1C(=O)N1CCC[C@H]1C(=O)N1CCC[C@H]1C(=O)N[C@@H](CO)C(N)=O)C(C)C)[C@@H](C)CC [Example 84] (H-Y[Aib]EGTFISDYSI[αMeL]LDEK([AEEA-AEEA-γGlu-C20 diacid])HQ[Aib]DFVE[4Pal]LLAQGPSSGAPPPS-NH2) | > 5000 nM | 0.034 nM | > 5000 nM
CC[C@H](C)[C@H](NC(=O)[C@H](CCCN)NC(=O)[C@H](CC(=O)O)NC(=O)[C@H](CC(C)C)NC(=O)[C@](C)(CC(C)C)NC(=O)[C@@H](NC(=O)[C@H](CO)NC(=O)[C@H](Cc1ccc(O)cc1)NC(=O)[C@H](CC(=O)O)NC(=O)[C@H](CO)NC(=O)[C@@H](NC(=O)[C@H](Cc1ccccc1)NC(=O)[C@@H](NC(=O)CNC(=O)[C@H](CCC(=O)O)NC(=O)C(C)(C)NC(=O)[C@@H](N)Cc1ccc(O)cc1)[C@@H](C)O)[C@@H](C)CC)[C@@H](C)CC)C(=O)N[C@@H](Cc1c[nH]cn1)C(=O)N[C@@H](CCC(N)=O)C(=O)NC(C)(C)C(=O)N[C@@H](CC(=O)O)C(=O)N[C@@H](Cc1ccccc1)C(=O)N[C@H](C(=O)N[C@H](CCC(=O)O)C(=O)N[C@@H](Cc1ccc(O)cc1)C(=O)N[C@@H](CCCCNC(=O)COCCOCCNC(=O)COCCOCCNC(=O)CC[C@H](NC(=O)CCCCCCCCCCCCCCCCCCC(=O)O)C(=O)O)C(=O)N[C@@H](CC(C)C)C(=O)N[C@@H](CCC(=O)O)C(=O)NCC(=O)NCC(=O)N1CCC[C@H]1C(=O)N[C@@H](CO)C(=O)N[C@@H](CO)C(=O)NCC(=O)N[C@@H](C)C(=O)N1CCC[C@H]1C(=O)N1CCC[C@H]1C(=O)N1CCC[C@H]1C(=O)N[C@@H](CO)C(N)=O)C(C)C [Example 101] | > 5000 nM | 0.0396 nM | > 5000 nM
CC[C@H](C)[C@H](NC(=O)[C@H](CCCN)NC(=O)[C@H](CC(=O)O)NC(=O)[C@H](CC(C)C)NC(=O)[C@](C)(CC(C)C)NC(=O)[C@@H](NC(=O)[C@H](CO)NC(=O)[C@H](Cc1ccc(O)cc1)NC(=O)[C@H](CC(=O)O)NC(=O)[C@H](CO)NC(=O)[C@@H](NC(=O)[C@H](Cc1ccccc1)NC(=O)[C@@H](NC(=O)CNC(=O)[C@H](CCC(=O)O)NC(=O)C(C)(C)NC(=O)[C@@H](N)Cc1ccc(O)cc1)[C@@H](C)O)[C@@H](C)CC)[C@@H](C)CC)C(=O)N[C@@H](Cc1c[nH]cn1)C(=O)N[C@@H](CCC(N)=O)C(=O)NC(C)(C)C(=O)N[C@@H](CCC(=O)O)C(=O)N[C@@H](Cc1ccccc1)C(=O)N[C@H](C(=O)N[C@@H](CCC(=O)O)C(=O)N[C@@H](Cc1ccc(O)cc1)C(=O)N[C@@H](CCCCNC(=O)COCCOCCNC(=O)COCCOCCNC(=O)CC[C@H](NC(=O)CCCCCCCCCCCCCCCCCCC(=O)O)C(=O)O)C(=O)N[C@@H](CC(C)C)C(=O)N[C@@H](CCC(=O)O)C(=O)N[C@H](C(=O)NCC(=O)N1CCC[C@H]1C(=O)N[C@@H](CO)C(=O)N[C@@H](CO)C(=O)NCC(=O)N[C@@H](C)C(=O)N1CCC[C@H]1C(=O)N1CCC[C@H]1C(=O)N1CCC[C@H]1C(=O)N[C@@H](CO)C(N)=O)[C@@H](C)O)C(C)C [Example 105] (H-Y[Aib]EGTFISDYSI[αMeL]LD[Orn]IHQ[Aib]EFVEYK([AEEA-AEEA-γGlu-C20 diacid])LETGPSSGAPPPS-NH2) | > 5000 nM | 0.0179 nM | > 5000 nM
CC[C@H](C)[C@H](NC(=O)[C@H](CCCCN)NC(=O)[C@H](CC(=O)O)NC(=O)[C@H](CC(C)C)NC(=O)[C@](C)(CC(C)C)NC(=O)[C@@H](NC(=O)[C@H](CO)NC(=O)[C@H](Cc1ccc(O)cc1)NC(=O)[C@H](CC(=O)O)NC(=O)[C@H](CO)NC(=O)[C@@H](NC(=O)[C@H](Cc1ccccc1)NC(=O)[C@@H](NC(=O)CNC(=O)[C@H](CCC(=O)O)NC(=O)C(C)(C)NC(=O)[C@@H](N)Cc1ccc(O)cc1)[C@@H](C)O)[C@@H](C)CC)[C@@H](C)CC)C(=O)N[C@@H](Cc1c[nH]cn1)C(=O)N[C@@H](CCC(N)=O)C(=O)NC(C)(C)C(=O)N[C@@H](CC(=O)O)C(=O)N[C@@H](Cc1ccccc1)C(=O)N[C@H](C(=O)N[C@@H](CCC(=O)O)C(=O)N[C@@H](Cc1ccncc1)C(=O)N[C@@H](CCCCNC(=O)COCCOCCNC(=O)COCCOCCNC(=O)CC[C@H](NC(=O)CCCCCCCCCCCCCCCCCCC(=O)O)C(=O)O)C(=O)N[C@@H](CC(C)C)C(=O)N[C@@H](CCC(=O)O)C(=O)NCC(=O)NCC(=O)N1CCC[C@H]1C(=O)N[C@@H](CO)C(=O)N[C@@H](CO)C(=O)NCC(=O)N[C@@H](C)C(=O)N1CCC[C@H]1C(=O)N1CCC[C@H]1C(=O)N1CCC[C@H]1C(=O)N[C@@H](CO)C(N)=O)C(C)C [Example 109] (H-Y[Aib]EGTFISDYSI[αMeL]LDKIHQ[Aib]DFVE[4Pal]K([AEEA-AEEA-γGlu-C20 diacid])LEGGPSSGAPPPS-NH2) | > 5000 nM | 0.0113 nM | > 5000 nM
CC[C@H](C)[C@H](NC(=O)[C@H](CO)NC(=O)[C@H](Cc1ccc(O)cc1)NC(=O)[C@H](CC(=O)O)NC(=O)[C@H](CO)NC(=O)[C@@H](NC(=O)[C@H](Cc1ccccc1)NC(=O)[C@@H](NC(=O)CNC(=O)[C@H](CCC(=O)O)NC(=O)[C@@H](C)NC(=O)[C@@H](N)Cc1ccc(O)cc1)[C@@H](C)O)[C@@H](C)CC)C(=O)N[C@@H](CC(C)C)C(=O)N[C@@H](CC(C)C)C(=O)N[C@@H](CC(=O)O)C(=O)N[C@@H](CCCCN)C(=O)N[C@@H](CCCCNC(=O)COCCOCCNC(=O)COCCOCCNC(=O)CC[C@H](NC(=O)CCCCCCCCCCCCCCCCCCC(=O)O)C(=O)O)C(=O)N[C@@H](Cc1c[nH]cn1)C(=O)N[C@@H](CCC(N)=O)C(=O)N[C@@H](CCC(N)=O)C(=O)N[C@@H](CC(=O)O)C(=O)N[C@@H](Cc1ccccc1)C(=O)N[C@H](C(=O)N[C@@H](CCC(=O)O)C(=O)N[C@@H](Cc1c[nH]c2ccccc12)C(=O)N[C@@H](CC(C)C)C(=O)N[C@@H](CC(C)C)C(=O)N[C@@H](C)C(=O)N[C@@H](CCC(N)=O)C(=O)NCC(=O)N1CCC[C@H]1C(=O)N[C@@H](CO)C(=O)N[C@@H](CO)C(=O)NCC(=O)N[C@@H](C)C(=O)N1CCC[C@H]1C(=O)N1CCC[C@H]1C(=O)N1CCC[C@H]1C(=O)N[C@@H](CO)C(N)=O)C(C)C [Example 14] (H-Y[dA]EGTFISDYSILLDKK([AEEA-AEEA-γGlu-C20 diacid])HQQDFVEWLLAQGPSSGAPPPS-NH2) | > 100 nM | 0.34 nM | > 5000 nM

— US12723063B2, “GIPR-agonist compounds” (Eli Lilly and Company, priority 2019, dated 2026)
